Laboratory results taken from PubChem BioAssay (NCI).
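48-hour exposure; five concentrations; linearly interpolated endpoints. TGI: total growth inhibition.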

What was measured:
Experiment in all cases: NCI anticancer screen, dose series, 48 h
SF-539 CNS = tested on: SF-539 CNS
NCI/ADR-RES ovarian = tested on: NCI/ADR-RES ovarian
TK-10 renal = tested on: TK-10 renal
SF-268 CNS = tested on: SF-268 CNS
UACC-257 melanoma = tested on: UACC-257 melanoma
NCI-H522 lung = tested on: NCI-H522 lung
SK-OV-3 ovarian = tested on: SK-OV-3 ovarian
MALME-3M melanoma = tested on: MALME-3M melanoma
HCC-2998 colon = tested on: HCC-2998 colon
LOX IMVI melanoma = tested on: LOX IMVI melanoma
ACHN renal = tested on: ACHN renal
NCI-H226 lung = tested on: NCI-H226 lung
KM12 colon = tested on: KM12 colon
PC-3 prostate = tested on: PC-3 prostate
RPMI-8226 leukemia = tested on: RPMI-8226 leukemia
CCRF-CEM leukemia = tested on: CCRF-CEM leukemia
SNB-19 CNS = tested on: SNB-19 CNS
IGROV1 ovarian = tested on: IGROV1 ovarian
SF-295 CNS = tested on: SF-295 CNS
MCF7 breast = tested on: MCF7 breast
MDA-MB-435 = tested on: MDA-MB-435
NCI-H23 lung = tested on: NCI-H23 lung
T-47D breast = tested on: T-47D breast
EKVX NSCLC = tested on: EKVX NSCLC
SN12C renal = tested on: SN12C renal
HCT-116 colon = tested on: HCT-116 colon
CAKI-1 renal = tested on: CAKI-1 renal
MDA-MB-231 breast = tested on: MDA-MB-231 breast
HCT-15 colon = tested on: HCT-15 colon
SK-MEL-28 melanoma = tested on: SK-MEL-28 melanoma
HT29 colon = tested on: HT29 colon
UO-31 renal = tested on: UO-31 renal
OVCAR-3 ovarian = tested on: OVCAR-3 ovarian
NCI-H460 lung = tested on: NCI-H460 lung
OVCAR-8 ovarian = tested on: OVCAR-8 ovarian
BT-549 breast = tested on: BT-549 breast
A498 renal = tested on: A498 renal
U251 CNS = tested on: U251 CNS
HOP-62 NSCLC = tested on: HOP-62 NSCLC
COLO 205 colon = tested on: COLO 205 colon
SK-MEL-2 melanoma = tested on: SK-MEL-2 melanoma
UACC-62 melanoma = tested on: UACC-62 melanoma
SW-620 colon = tested on: SW-620 colon
DU-145 prostate = tested on: DU-145 prostate
786-0 renal = tested on: 786-0 renal
MOLT-4 leukemia = tested on: MOLT-4 leukemia
RXF 393 renal = tested on: RXF 393 renal
MDA-N = tested on: MDA-N
SK-MEL-5 melanoma = tested on: SK-MEL-5 melanoma
OVCAR-5 ovarian = tested on: OVCAR-5 ovarian
HS 578T breast = tested on: HS 578T breast
A549 NSCLC = tested on: A549 NSCLC
SNB-75 CNS = tested on: SNB-75 CNS
OVCAR-4 ovarian = tested on: OVCAR-4 ovarian
M14 melanoma = tested on: M14 melanoma
HOP-92 NSCLC = tested on: HOP-92 NSCLC
HL-60(TB) leukemia = tested on: HL-60(TB) leukemia
K-562 leukemia = tested on: K-562 leukemia

Fc1ccc(C(OCCN2CCC3CCC(C2)N3C/C=C/c2cccs2)c2ccc(F)cc2)cc1 (stereo not given)
TGI (SF-539 CNS): 22.5 µM | TGI (NCI/ADR-RES ovarian): 19.7 µM | TGI (TK-10 renal): 24.3 µM | TGI (SF-268 CNS): 24.6 µM | TGI (UACC-257 melanoma): 15.1 µM | TGI (NCI-H522 lung): 17.7 µM | TGI (SK-OV-3 ovarian): 26.3 µM | TGI (MALME-3M melanoma): 18.9 µM | TGI (HCC-2998 colon): 12.9 µM | TGI (LOX IMVI melanoma): 18.9 µM | TGI (ACHN renal): 24.1 µM | TGI (NCI-H226 lung): 22.1 µM | TGI (KM12 colon): 19.7 µM | TGI (PC-3 prostate): 18.7 µM | TGI (RPMI-8226 leukemia): 1.78 µM | TGI (CCRF-CEM leukemia): 26.7 µM | TGI (SNB-19 CNS): 27.9 µM | TGI (IGROV1 ovarian): 21.6 µM | TGI (SF-295 CNS): 22.4 µM | TGI (MCF7 breast): 21.5 µM | TGI (MDA-MB-435): 20.5 µM | TGI (NCI-H23 lung): 20.9 µM | TGI (T-47D breast): 15.5 µM | TGI (EKVX NSCLC): 16.5 µM | TGI (SN12C renal): 18 µM | TGI (HCT-116 colon): 16.3 µM | TGI (CAKI-1 renal): 23.1 µM | TGI (MDA-MB-231 breast): 21.3 µM | TGI (HCT-15 colon): 16.6 µM | TGI (SK-MEL-28 melanoma): 19.1 µM | TGI (HT29 colon): 15.4 µM | TGI (UO-31 renal): 24.3 µM | TGI (OVCAR-3 ovarian): 25.3 µM | TGI (NCI-H460 lung): 15.4 µM | TGI (OVCAR-8 ovarian): 15.8 µM | TGI (BT-549 breast): 25.9 µM | TGI (A498 renal): 21 µM | TGI (U251 CNS): 18.8 µM | TGI (HOP-62 NSCLC): 30.2 µM | TGI (COLO 205 colon): 12.2 µM | TGI (SK-MEL-2 melanoma): 24.1 µM | TGI (UACC-62 melanoma): 23.7 µM | TGI (SW-620 colon): 19.1 µM | TGI (DU-145 prostate): 26 µM | TGI (786-0 renal): 20.8 µM | TGI (MOLT-4 leukemia): 3.14 µM | TGI (RXF 393 renal): 16.3 µM | TGI (MDA-N): 22 µM | TGI (SK-MEL-5 melanoma): 12.1 µM | TGI (OVCAR-5 ovarian): 25.9 µM | TGI (HS 578T breast): 28.4 µM | TGI (A549 NSCLC): 24.3 µM | TGI (SNB-75 CNS): 29 µM | TGI (OVCAR-4 ovarian): 22.5 µM | TGI (M14 melanoma): 14.8 µM | TGI (HOP-92 NSCLC): 20.3 µM

O=S(=O)(/N=C(\NO)Nc1ccc(Cl)cc1)c1cc2ccccc2s1
TGI (SF-539 CNS): 40.2 µM | TGI (NCI/ADR-RES ovarian): 38.7 µM | TGI (TK-10 renal): 41.1 µM | TGI (SF-268 CNS): 29.2 µM | TGI (UACC-257 melanoma): 49.9 µM | TGI (NCI-H522 lung): 27.2 µM | TGI (SK-OV-3 ovarian): 34.7 µM | TGI (MALME-3M melanoma): 29.6 µM | TGI (LOX IMVI melanoma): 33.5 µM | TGI (ACHN renal): 30.5 µM | TGI (NCI-H226 lung): 33.2 µM | TGI (KM12 colon): 57.2 µM | TGI (PC-3 prostate): 27.7 µM | TGI (CCRF-CEM leukemia): 87.5 µM | TGI (SNB-19 CNS): 31.2 µM | TGI (IGROV1 ovarian): 28.7 µM | TGI (SF-295 CNS): 41 µM | TGI (HL-60(TB) leukemia): 45.3 µM | TGI (MDA-MB-435): 36.9 µM | TGI (NCI-H23 lung): 30.5 µM | TGI (T-47D breast): 84.2 µM | TGI (EKVX NSCLC): 26 µM | TGI (SN12C renal): 33 µM | TGI (HCT-116 colon): 30.2 µM | TGI (CAKI-1 renal): 34.7 µM | TGI (MDA-MB-231 breast): 34.8 µM | TGI (HCT-15 colon): 36 µM | TGI (SK-MEL-28 melanoma): 39.6 µM | TGI (HT29 colon): 35 µM | TGI (UO-31 renal): 48.7 µM | TGI (OVCAR-3 ovarian): 32.4 µM | TGI (NCI-H460 lung): > 100 µM | TGI (OVCAR-8 ovarian): 30.7 µM | TGI (BT-549 breast): 31.6 µM | TGI (U251 CNS): 29.1 µM | TGI (HOP-62 NSCLC): 34.8 µM | TGI (COLO 205 colon): 29.6 µM | TGI (SK-MEL-2 melanoma): 30.4 µM | TGI (UACC-62 melanoma): 29.3 µM | TGI (SW-620 colon): 82 µM | TGI (DU-145 prostate): 49.2 µM | TGI (786-0 renal): 32.3 µM | TGI (MOLT-4 leukemia): 77.8 µM | TGI (K-562 leukemia): > 100 µM | TGI (RXF 393 renal): 36 µM | TGI (MDA-N): 36.6 µM | TGI (SK-MEL-5 melanoma): 30.1 µM | TGI (OVCAR-5 ovarian): 29.5 µM | TGI (HS 578T breast): 37.5 µM | TGI (A549 NSCLC): 38.1 µM | TGI (SNB-75 CNS): 29.8 µM | TGI (OVCAR-4 ovarian): 37.9 µM | TGI (M14 melanoma): 33.3 µM | TGI (HOP-92 NSCLC): 38.8 µM
